The record followed here is PubChem BioAssay AID1996.

In brackets after ≈: the same amount, converted by molar mass.

For the data set the following is noted: buffer; pH 7.4; 200.0 µM.
For the molecule `O=C(NCc1ccccc1)c1cccc(S(=O)(=O)N2CCCCC2)c1`, the kinetic solubility is 7.6 µg/mL (≈ 21.2 µM). As to `CCOc1ccc(NC(=O)Nc2ccc3c(c2)CCC3)cc1`, the kinetic solubility was < 0.3 µg/mL. In the case of `CC(=O)c1ccc(NC(=S)NN2C(C)CCCC2C)cc1` (configuration not stated), the kinetic solubility was > 45.8 µg/mL. The figure for `FC(F)(F)c1nc(NCc2cccnc2)c2ccccc2n1` is 2.6 µg/mL (≈ 8.54 µM); for `CC(=O)c1c(C)[nH]c(C(=O)COC(=O)c2ccc(C)s2)c1C` it is 3.5 µg/mL (≈ 11 µM).

In turn, `COC(=O)C1=CNC=C(C(=O)OC)C1c1cccc2ccccc12` displayed a solubility (kinetic) of 2.6 µg/mL (≈ 8.04 µM).

Consider `O=C(COc1ccccc1Cl)NCCCNC(=O)c1ccco1`, for which the kinetic solubility is > 50.5 µg/mL. `O=[N+]([O-])c1ccc2c(c1)nc1n2CCN(CC2CCCO2)C1` (configuration not stated) displayed a solubility (kinetic) of 41.1 µg/mL (≈ 136 µM). The figure for `COc1ccc(F)cc1S(=O)(=O)n1cnc2ccccc21` is 28.3 µg/mL (≈ 92.4 µM); for `CSc1cccc(NC(=S)N2CCC(c3ccccc3)C2)c1` (configuration not stated) it is 2.2 µg/mL (≈ 6.7 µM).

`COc1cc2c(cc1OC)-c1cc(Nc3ccc(C)cc3)nc(=O)n1CC2` registered a solubility (kinetic) of 1.9 µg/mL (≈ 5.23 µM).

`Cc1sc2ncnc(NCC(c3ccccc3)N(C)C)c2c1C` (configuration not stated) gave a solubility (kinetic) of 47.1 µg/mL (≈ 144 µM). The figure for `Cc1ccc(NC(=O)NCC(c2ccccc2)N(C)C)cc1` (configuration not stated) is > 44.6 µg/mL. The figure for `COCCSc1ccccc1C(=O)NCCc1ccccc1` is > 47.3 µg/mL; for `O=C1CCc2cc(S(=O)(=O)Nc3ccc(F)cc3)ccc2N1` it is > 48.1 µg/mL. With `Cc1cc(C)c(OCCN2CCCC2)c(Cl)c1` the figure was 27.8 µg/mL (≈ 110 µM); with `COC(CNc1ncnc2c1cnn2C)OC`, > 35.6 µg/mL; with `COCc1ccc(C(=O)Nc2ccc(C(=O)O)cc2)o1`, > 41.3 µg/mL.

Consider `COc1ccc(/C=C/C(=O)Nc2ccc(C)c(S(=O)(=O)N3CCOCC3)c2)cc1`, for which the solubility (kinetic) amounted to 7.4 µg/mL (≈ 17.8 µM).

On to `Cc1ccc(C(=O)N(C)CC(=O)Nc2cccc(C)c2C)o1`, for which the kinetic solubility is > 45.1 µg/mL. With `CCN(CC)S(=O)(=O)c1cc(NC(=O)NCCCl)ccc1C` the figure was > 52.2 µg/mL; with `O=C(COC(=O)c1cnccn1)c1ccc(Cl)c([N+](=O)[O-])c1`, > 48.3 µg/mL; with `CCCc1nnc(NC(=O)CCC(=O)NC2CC2)s1`, > 42.4 µg/mL. The figure for `Cc1ccc(CNc2nc(N)c([N+](=O)[O-])c(NCCO)n2)cc1` is 43.4 µg/mL (≈ 136 µM). With `COc1ccccc1Nc1nc(NCCO)nc(N)c1[N+](=O)[O-]` the figure was 3.4 µg/mL (≈ 10.6 µM). Consider `Cc1cccc(NC(=O)NNC(=O)c2ccccn2)c1`, for which the solubility (kinetic) is > 40.5 µg/mL. With `Cl.Clc1ccc(CN2CCNCC2)cc1` the figure was 22.6 µg/mL. The figure for `COc1cccc2c(C)cc(N3CCCCCC3)nc12` is 33.2 µg/mL (≈ 123 µM); for `O=C1CNC(=S)N1CCOc1ccccc1` it is 30.4 µg/mL (≈ 129 µM). The figure for `N#Cc1ccccc1CCN1C(=O)c2ccccc2C1=O` is 19.6 µg/mL (≈ 70.9 µM); for `O=C(O)C1=NN(c2c(F)c(F)cc(F)c2F)C(=O)CC1` it is > 43.5 µg/mL.

As to `Cc1cc(OC(=O)c2ccc(C)c(C)c2)c([N+](=O)[O-])c(=O)[nH]1`, the solubility (kinetic) was > 45.3 µg/mL. The figure for `O=C(CS(=O)(=O)c1c[nH]c2ccccc12)N1CCCCCC1` is > 48.1 µg/mL. The figure for `O=C(Nc1ccc(S(=O)(=O)NC2=NCCCCC2)cc1)c1cccs1` is > 56.6 µg/mL; for `O=C(Nc1cc2c3c(c1)CC(=O)N3CCC2)C1CCCCC1` it is > 44.8 µg/mL; for `CN(Cc1ccc(F)cc1)C(=O)CCc1nnc(-c2ccccc2)o1` it is > 50.9 µg/mL.

For the molecule `COc1ccc(Cn2cc([N+](=O)[O-])nc2C)cc1[N+](=O)[O-]`, the kinetic solubility is > 43.8 µg/mL. The figure for `O=C(COC(=O)c1cccc(S(=O)(=O)NCc2ccccc2)c1)NC1CC1` is 15.2 µg/mL (≈ 39.1 µM). The figure for `Fc1ccc2nc(N3CCOCC3)sc2c1` is > 35.7 µg/mL; for `O=C(c1cc(F)c(F)c(F)c1F)N1CCN(C(=O)C2CCCO2)CC1` (configuration not stated) it is > 54 µg/mL. The figure for `OC(c1ccccc1)(c1ccc(Cl)cc1)C1CN2CCC1CC2` (configuration not stated) is > 49.2 µg/mL; for `CC(=O)c1cccc(S(=O)(=O)Nc2ccccc2N2CCOCC2)c1` it is > 54.1 µg/mL. As for `CCN(C/C=C/c1ccccc1OC)Cc1ccccc1`, the solubility (kinetic) came to 18.3 µg/mL (≈ 65 µM). Regarding `CCC1CCCCN1C(=O)CNCC1CCCO1.Cl` (configuration not stated), the kinetic solubility came out at 27.4 µg/mL. Regarding `Cc1c(-c2nc3ccccc3[nH]2)cnn1C`, the solubility (kinetic) is > 31.8 µg/mL.

`O=C(O)c1nccnc1C(=O)NCCc1c[nH]c2ccccc12` had a solubility (kinetic) of 42.1 µg/mL (≈ 136 µM). With `COc1ccc(OCCNC(=O)c2ccc(C)cc2)cc1` the figure was 36.8 µg/mL (≈ 129 µM); with `COc1cccc(C(O)c2nc3ccccc3n2C)c1` (configuration not stated), 28.9 µg/mL (≈ 108 µM).

The molecule `Cc1ccc(S(=O)(=O)NCCC2=CCCCC2)cc1` gave a kinetic solubility of 23 µg/mL (≈ 82.3 µM). Regarding `O=[N+]([O-])c1cccc(C(O)C23CN4CN(CN(C4)C2)C3)c1` (configuration not stated), the solubility (kinetic) is > 43.5 µg/mL. Take `O=C(O)C(Cc1ccccc1)N1C(=O)CCC1=O` (configuration not stated): the solubility (kinetic) is > 37.1 µg/mL. With `O=C(O)c1cccnc1Sc1ccccc1Cl` the figure was 37.6 µg/mL (≈ 142 µM).
